In publication PMC12040169 (PLOS Biology, 2025):

Experiment: in vitro
Settings: human, hela cells, % viability

Compound	viability at 28.5 h, 10 µM [%]	viability at 28.5 h, 10 µM (bulk resorufin, single well) [%]
COc1ccc([N+](=O)[O-])cc1NC(=O)c1cc(Cl)c(OC)c(Cl)c1 [CBK268594]	82.6	
CN(Cc1nc(-c2ccncc2)no1)S(=O)(=O)c1ccc(Br)cc1 [CBK268598]	94.6	
Cc1cccc(C(=O)Nc2cccc(OCC(=O)O)c2)c1 [CBK268599]	114	
Cc1cc(OCc2nnc(SCC(=O)Nc3ccc(I)cc3)n2C)ccc1Cl [CBK268600]	113	
Cc1cc(C)cc(OCc2nnc(SCC(=O)Nc3c(F)cc(F)cc3Br)n2C)c1 [CBK268604]	83.6	
O=C(O)Cc1ccc(NC(=O)c2cccc(NC(=O)c3ccco3)c2)cc1 [CBK268606]	96.7	
CCn1c(SCc2nc(-c3cccs3)no2)nnc1-c1c[nH]c2ccccc12 [CBK268607]	104	
CCn1c(SCC(=O)Nc2c(Cl)cc(Cl)cc2Cl)nnc1-c1ccccc1F [CBK268609]	102	
Cc1ccc(SC(C)C(=O)Nc2cc(Cl)ccc2O)cc1 (stereo not drawn) [CBK268610]	87.9	
O=C(O)c1ccc(C(=O)Nc2cccc(NC(=O)C3CCCO3)c2)cc1 (stereo not drawn) [CBK268613]	105	
Cc1cc(Cl)cc(Br)c1OCCNCCN1CCOCC1 [CBK268615G]	111	
CN(CC(=O)O/N=C(\N)c1ccccn1)S(=O)(=O)c1ccc(Br)cc1 [CBK268617]	96.9	
CN(CC(=O)Nc1nnc[nH]1)S(=O)(=O)c1ccc(Br)cc1 [CBK268618]	91.1	
O=C(c1ccccc1CCc1ccccc1)N1CCN(Cc2ccc3c(c2)OCO3)CC1 [CBK268623]	120	
Cc1ccc(SC(C)C(=O)NCCCN2CCOCC2)cc1 (stereo not drawn) [CBK268624]	88.5	
COc1ccccc1C(=O)Nc1ccccc1C(=O)Nc1ccc(C(=O)O)cc1 [CBK268625]	94.7	
CC(C)(C)c1ccc(C(=O)Nc2ccccc2C(=O)Nc2ccc(C(=O)O)cc2)cc1 [CBK268626]	89.1	
Cc1ccccc1OC(C)C(=O)NCCCN1CCOCC1 (stereo not drawn) [CBK268628]	112	
COc1ccc(NC(=O)c2ccccc2CCc2ccccc2)c([N+](=O)[O-])c1 [CBK268632]	97	
CC(C)(C)C1CCc2c(sc(NC(=S)NC(=O)COc3ccccc3)c2C(N)=O)C1 (stereo not drawn) [CBK268634]	107	

Compound	viability at 28.5 h, 10 µM [%]	viability at 28.5 h, 10 µM (bulk resorufin, single well) [%]
O=C(Nc1cccc(O)c1)c1ccc2c(c1)C(=O)N(Cc1ccco1)C2=O [CBK268640]	95.6	
COCCN1C(=O)c2ccc(C(=O)c3ccc4c(c3)C(=O)N(CCOC)C4=O)cc2C1=O [CBK268641]	113	
O=C(Nc1ccccc1-c1nc2ccccc2s1)c1sc2cc(Cl)ccc2c1Cl [CBK268642]	88.5	
Cc1cccnc1NC(=O)C(C)Oc1ccccc1 (stereo not drawn) [CBK268643]	90.2	
COc1ccc(-c2noc(CSc3nnc(-c4c[nH]c5ccccc45)n3C)n2)cc1OC [CBK268644]	88.8	
Cc1ccc(S(=O)(=O)N(CC(=O)Nc2ccccc2F)c2cc(Cl)ccc2Cl)cc1 [CBK268647]	111	
CN(CC(=O)Nc1ccccc1C(N)=O)S(=O)(=O)c1ccc(Br)cc1 [CBK268648]	98.7	
O=C(NC(=S)Nc1cc(-c2nc3ccccc3[nH]2)ccc1Cl)c1ccccc1[N+](=O)[O-] [CBK268649]	93.7	
CN1CCN(C(=O)CNC(=O)CNS(=O)(=O)c2ccccc2)CC1 [CBK268651]	90.9	
CC(C)(C)N1C(=O)c2ccc(C(=O)NNC(=O)C(C#N)C(=O)c3ccc4c(c3)C(=O)N(C(C)(C)C)C4=O)cc2C1=O (stereo not drawn) [CBK268652]	90.3	
Cc1ccc(SCCN2CCN(Cc3ccccc3)CC2)cc1 [CBK268653G]	99.1	
COc1ccccc1NC(=O)CNC(=O)c1ccc([N+](=O)[O-])cc1 [CBK268657]	91.9	
CCOC(=O)N1CCN(C(=O)c2ccc(CS(=O)(=O)c3ccc(C)cc3)cc2)CC1 [CBK268659]	88.3	
CCOC(=O)c1ccc(NC(=O)C(C)Oc2ccccc2C)cc1 (stereo not drawn) [CBK268660]	102	
COc1ccc(OC)c(NC(=O)Cn2cc(C(C)=O)c3ccccc32)c1 [CBK268661]	92.5	
Cc1[nH]c2ccccc2c1C(=O)CSc1nnc(Cc2cccs2)n1C [CBK268663]	105	
CN(C)S(=O)(=O)N(CC(=O)Nc1ccccc1C(F)(F)F)c1ccccc1 [CBK268665]	102	
CCc1cccc(C)c1NC(=O)CN(c1cccc(Cl)c1Cl)S(=O)(=O)c1ccc(C)cc1 [CBK268666]	84.7	
Cc1ccc(O)c(NC(=O)COc2ccc(Cl)cc2)c1 [CBK268670]	108	
NC(=O)CSc1nnc(-c2cccnc2)n1Cc1ccccc1 [CBK268672]	99.2	

Compound	viability at 28.5 h, 10 µM [%]	viability at 28.5 h, 10 µM (bulk resorufin, single well) [%]
O=C(Nc1ccc2oc(-c3cccnc3)nc2c1)c1cc([N+](=O)[O-])ccc1N1CCOCC1 [CBK268674]	95	
Cc1ccc(NC(=O)CSc2nnc3c4c5c(sc4nc(-n4nc(C)cc4C)n23)COC(C)(C)C5)cc1 [CBK268675]	93.2	
Cc1cccc(N(CC(=O)Nc2cccnc2)S(=O)(=O)c2ccc(Cl)cc2)c1 [CBK268676]	85.3	
Cc1ccc(C)c2c1c1nc3ccccc3nc1n2Cc1nnc(-c2ccccc2)o1 [CBK268677]	104	
CCc1nnc(SCC(=O)N2c3ccccc3Sc3ccccc32)[nH]1 [CBK268687]	110	
CCn1c(Cc2ccccc2)nnc1SCC(=O)Nc1cc(Cl)ccc1O [CBK268689]	104	
COc1ccc(C(=O)NCCCSc2nc(C(C)(C)C)cc(C(F)(F)F)n2)cc1 [CBK268690]	99.7	
CSc1ncc(Cl)c(C(=O)Nc2nnc(SC/C=C/c3ccccc3)s2)n1 [CBK268691]	93.5	
Cc1cc(C)c(NC(=O)CSc2nc(C)c(Cc3ccccc3Cl)c(O)n2)c([N+](=O)[O-])c1 [CBK268693]	90.4	
CCN(CC(=O)O)S(=O)(=O)c1cc(C)ccc1OC [CBK268694]	98.7	
CC(C)C(NS(=O)(=O)c1ccc(I)cc1)C(=O)O (stereo not drawn) [CBK268703]	106	
Cc1cccc(N2C(=O)NC(=O)C(CCc3ccncc3)(CCc3ccncc3)C2=O)c1C [CBK268705]		93.9
COC(=O)CC1C(=O)NCCN1C(=S)NC(=O)c1ccc(-c2ccccc2)cc1 (stereo not drawn) [CBK268711]	105	
O=C(c1nc(SCc2ccccc2)ncc1Cl)N1CCN(c2cccc(Cl)c2)CC1 [CBK268712]	113	
O=C1CC(N2CCN(c3ccc(S(=O)(=O)N4CCOCC4)cc3)CC2)C(=O)N1Cc1ccccc1 (stereo not drawn) [CBK268713]	107	
COC(=O)c1ccc(N2C(=O)CC(N3CCC(n4c(=O)[nH]c5ccccc54)CC3)C2=O)cc1 (stereo not drawn) [CBK268714]	94.6	
O=C(CCS(=O)(=O)c1nc(-c2ccccc2)cc(C(F)(F)F)n1)Nc1ccc(Cl)cc1Cl [CBK268717]	84.9	
CCOC(=O)c1ccc(N2C(=O)CC(N3CCCc4ccccc43)C2=O)cc1 (stereo not drawn) [CBK268720]	109	
CCOC(=O)c1ccc(N2C(=O)CC(N3CCN(c4ccc(S(C)(=O)=O)cc4)CC3)C2=O)cc1 (stereo not drawn) [CBK268721]	103	
Cc1ccc(OCC(=O)Nc2ccccc2N2CCN(S(C)(=O)=O)CC2)cc1 [CBK268722]	84	
